Test: xn = mol fraction of the nth substance listed
Conditions: 97.6 kPa, Liquid; for viscosity: Capillary tube (Ostwald / Ubbelohde) method; for mass density: Vibrating tube method

CCCCCCCC[n+]1ccn(C)c1.[Cl-] [1-methyl-3-octylimidazolium chloride] + C[S+](C)[O-]
Conditions	mass density [kg/m3]	viscosity [mPa·s]
303.15 K, x1 = 0.13	1067.88	6.85
303.15 K, x1 = 0.253	1051.57	24.14
303.15 K, x1 = 0.338	1042.77	55.12
303.15 K, x1 = 0.439	1034.29	143.43
303.15 K, x1 = 0.574	1025.26	371.36
303.15 K, x1 = 0.75	1015.41	1084.7
303.15 K, x1 = 0.862	1011.18	3235.6
303.15 K, x1 = 1	1006.2	7339.7
308.15 K, x1 = 0.13	1063.71	6
308.15 K, x1 = 0.253	1047.84	19.97
308.15 K, x1 = 0.338	1039.2	43.8
308.15 K, x1 = 0.439	1030.91	107.7
308.15 K, x1 = 0.574	1022.09	264.22
308.15 K, x1 = 0.75	1012.38	742.47
308.15 K, x1 = 0.862	1008.24	2150.9
308.15 K, x1 = 1	1003.33	4272.9
313.15 K, x1 = 0.13	1059.55	5.24
313.15 K, x1 = 0.253	1044.09	16.54
313.15 K, x1 = 0.338	1035.65	34.98
313.15 K, x1 = 0.439	1027.54	82.42
313.15 K, x1 = 0.574	1018.92	192.92
313.15 K, x1 = 0.75	1009.41	508.33
313.15 K, x1 = 0.862	1005.31	1404.4
313.15 K, x1 = 1	1000.48	2766.9
318.15 K, x1 = 0.13	1055.41	4.62
318.15 K, x1 = 0.253	1040.39	13.89
318.15 K, x1 = 0.338	1032.11	28.15
318.15 K, x1 = 0.439	1024.18	63.95
318.15 K, x1 = 0.574	1015.75	143.95
318.15 K, x1 = 0.75	1006.46	363.38
318.15 K, x1 = 0.862	1002.4	943.52
318.15 K, x1 = 1	997.64	1788.6
323.15 K, x1 = 0.13	1051.26	4.1
323.15 K, x1 = 0.253	1036.65	11.8
323.15 K, x1 = 0.338	1028.58	23.25
323.15 K, x1 = 0.439	1020.83	50.83
323.15 K, x1 = 0.574	1012.58	109.49
323.15 K, x1 = 0.75	1003.51	264.93
323.15 K, x1 = 0.862	999.47	653.9
323.15 K, x1 = 1	994.82	1198.7
328.15 K, x1 = 0.13	1047.12	3.67
328.15 K, x1 = 0.253	1032.95	10.12
328.15 K, x1 = 0.338	1025.06	19.36
328.15 K, x1 = 0.439	1017.51	41.01
328.15 K, x1 = 0.574	1009.43	84.97
328.15 K, x1 = 0.75	1000.56	197.17
328.15 K, x1 = 0.862	996.58	466.77
328.15 K, x1 = 1	992	828.3
333.15 K, x1 = 0.13	1042.98	3.31
333.15 K, x1 = 0.253	1029.24	8.78
333.15 K, x1 = 0.338	1021.55	16.31
333.15 K, x1 = 0.439	1014.19	33.28
333.15 K, x1 = 0.574	1006.28	67.04
333.15 K, x1 = 0.75	997.59	149.71
333.15 K, x1 = 0.862	993.72	338.65
333.15 K, x1 = 1	989.17	588.69
338.15 K, x1 = 0.13	1038.85	3
338.15 K, x1 = 0.253	1025.55	7.66
338.15 K, x1 = 0.338	1018.05	13.91
338.15 K, x1 = 0.439	1010.88	27.38
338.15 K, x1 = 0.574	1003.15	53.77
338.15 K, x1 = 0.75	994.64	115.48
338.15 K, x1 = 0.862	990.88	250.15
338.15 K, x1 = 1	986.38	426.28
343.15 K, x1 = 0.13	1034.72	2.72
343.15 K, x1 = 0.253	1021.86	6.75
343.15 K, x1 = 0.338	1014.56	11.95
343.15 K, x1 = 0.439	1007.59	22.97
343.15 K, x1 = 0.574	1000.03	43.6
343.15 K, x1 = 0.75	991.75	90.8
343.15 K, x1 = 0.862	988.04	189.55
343.15 K, x1 = 1	983.63	316.66
348.15 K, x1 = 0.13	1030.6	2.5
348.15 K, x1 = 0.253	1018.18	5.98
348.15 K, x1 = 0.338	1011.07	10.37
348.15 K, x1 = 0.439	1004.31	19.28
348.15 K, x1 = 0.574	996.93	35.76
348.15 K, x1 = 0.75	988.9	72.27
348.15 K, x1 = 0.862	985.2	145.53
348.15 K, x1 = 1	980.88	237.14
353.15 K, x1 = 0.13	1026.47	2.29
353.15 K, x1 = 0.253	1014.51	5.34
353.15 K, x1 = 0.338	1007.6	9.06
353.15 K, x1 = 0.439	1001.04	16.49
353.15 K, x1 = 0.574	993.83	29.9
353.15 K, x1 = 0.75	985.96	58.87
353.15 K, x1 = 0.862	982.37	113.93
353.15 K, x1 = 1	978.13	181.41
